Laboratory results taken from paper PMC9597602, “Metal Complexes as Antifungals? From a Crowd-Sourced Compound Library to the First In Vivo Experiments” (JACS Au, 2022).
Where two headings read alike, the source gives them in different places.

How the values were obtained:
[1] = tested on: Candida albicans ATCC 90028 NCCLS11; test: Antifungal MIC assay; assay type: cell-based; details: for MIC Candida albicans ATCC 90028 / MIC50 Candida albicans ATCC 90028: extended panel; for MIC Candida albicans ATCC 90028: second batch, ≥80 or ≥50% inhibition; for MIC50 Candida albicans ATCC 90028: 50% inhibition, MIC score 2; for MIC Ca: initial CO-ADD dose-response screening, ≥80% growth inhibition
In short: (§1)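 MIC is the lowest concentration at which growth fell by at least 80% (optically clear to slightly hazy, CLSI M27 score 0–1). Cells in YNB at a final 2.5 × 10^3 CFU/mL were incubated with compound for 36 h at 35 °C, unshaken.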

[2] = tested on: Candida glabrata ATCC 90030 NCCLS 84; test: Antifungal MIC assay, extended panel; assay type: cell-based; details: extended panel, second batch; ≥80 or ≥50% inhibition
Method: (§2) For the fungal assays, both fungi (yeast) strains were cultured for 3 days on Yeast Extract-Peptone Dextrose (YPD; Becton Dickinson 242720) agar at 30 °C. A yeast suspension of 1 × 10^6 to 5 × 10^6 CFU/mL (as determined by OD530) was prepared from five colonies from the agar plates, subsequently diluted with Yeast Nitrogen Base media (YNB; Becton Dickinson 233520), and added to each well of the compound containing plates (384-well plates, NBS; Corning CLS3640), giving a final cell density of 2.5 × 10^3 CFU/mL and a total volume of 50 μL. Plates were covered and incubated at 35 °C for 36 h without shaking. […] MIC values were recorded as the lowest concentration at which the growth was inhibited by ≥80%, equivalent to ″optically clear-to-slightly hazy″ or MIC score of 0–1 as per CLSI guidelines M27 Reference Method for Broth Dilution Antifungal Susceptibility Testing of Yeasts. […] Fluconazole (Sigma F8929) was used as internal control on each plate for all strains. All compounds were tested as two technical replicates in two to four independent biological assays, n = 4–8 final data.

[3] = tested on: Cryptococcus deuterogattii ATCC 32609 VGII; test: Antifungal MIC assay, extended panel; assay type: cell-based; details: extended panel, second batch; ≥80 or ≥50% inhibition
Method: as §2

[4] = tested on: Candida tropicalis ATCC 750; test: Antifungal MIC assay, extended panel; assay type: cell-based; details: extended panel, second batch; ≥80 or ≥50% inhibition
Method: as §2

[5] = tested on: Cryptococcus deuterogattii CBS7750 VGII; Serotype B; test: Antifungal MIC assay, extended panel; assay type: cell-based; details: extended panel, second batch; ≥80 or ≥50% inhibition
Method: as §2

[6] = tested on: Candida tropicalis ATCC 750; test: Antifungal MIC assay, extended panel; assay type: cell-based; details: extended panel; 50% inhibition, MIC score 2
[7] = tested on: human red blood cells; assay type: cell-based
Method: Human whole blood (Australian Red Cross) was washed three times with 3 vol of 0.9% NaCl and resuspended in a concentration of 0.5 × 10^8 cells/mL, determined by a manual cell count in a Neubauer hemocytometer. […] After incubation, the plates were centrifuged at 1000g for 10 min to pellet cells and debris; 25 μL of the supernatant was then transferred to reading plates (384-well, polystyrene plated (PS), Corning CLS3680), with hemolysis determined by measuring the supernatant absorbance at […] (OD405) using cells without inhibitors as negative control and cells with 1% Triton X-100 (Sigma T8787) as positive control. […] Melittin (Sigma M2272) was used as internal control on each plate.

[8] = tested on: Candida glabrata ATCC 90030 NCCLS 84; test: Antifungal MIC assay, extended panel; assay type: cell-based; details: extended panel; 50% inhibition, MIC score 2
[9] = tested on: Candida auris CBS12373 KCTC 17810; test: Antifungal MIC assay, extended panel; assay type: cell-based; details: extended panel; for MIC50 Candida auris CBS12373: 50% inhibition, MIC score 2
Method: as §2, with “values were recorded as the lowest concentration at which the growth was inhibited by ≥80%, equivalent to ″optically clear-to-slightly hazy″ or MIC score of 0–1 as per CLSI guidelines M27” left out

[10] = tested on: Candida auris CBS10913 JCM 15448; test: Antifungal MIC assay, extended panel; assay type: cell-based; details: extended panel; for MIC Candida auris CBS10913: second batch, ≥80 or ≥50% inhibition; for MIC50 Candida auris CBS10913: 50% inhibition, MIC score 2
Method: as §2, with “values were recorded as the lowest concentration at which the growth was inhibited by ≥80%, equivalent to ″optically clear-to-slightly hazy″ or MIC score of 0–1 as per CLSI guidelines M27” left out

[11] = tested on: Pseudomonas aeruginosa ATCC 27853 QC control strain; test: CO-ADD antibacterial MIC assay; assay type: cell-based; details: initial CO-ADD dose-response screening; ≥80% growth inhibition
Method: (§3) For the all the bacterial assays, each bacterial strain was cultured in cation-adjusted Mueller Hinton broth (CAMHB; Bacto Laboratories 212322) at 37 °C overnight. A sample of each culture was then diluted 40-fold in fresh CAMHB and incubated at 37 °C for 1.5–3 h. The resultant mid-log phase cultures were diluted with CAMHB (CFU/mL measured by OD600) and then added to each well of the compound-containing plates (384-well non-binding surface (NBS) plates; Corning CLS3640), giving a cell density of 5 × 10^5 CFU/mL and a total volume of 50 μL. Plates were covered and incubated at 37 °C for 18 h without shaking. Inhibition of bacterial growth was determined by measuring the absorbance at 600 nm (OD600) using media only as negative control and bacteria without inhibitors as positive control. MIC values were determined as the lowest concentration at which the growth was inhibited by ≥80% (equivalent to no visible growth by the eye). Colistin sulfate (Sigma C4461) and vancomycin HCl (Sigma 861987) were used as internal controls on each plate for Gram-negative and Gram-positive bacteria, respectively. All compounds were tested as two technical replicates in two independent biological assays, n = 4 final data.

[12] = tested on: Escherichia coli ATCC 25922 FDA control strain; test: CO-ADD antibacterial MIC assay; assay type: cell-based; details: initial CO-ADD dose-response screening; ≥80% growth inhibition
Method: as §3

[13] = tested on: Acinetobacter baumannii ATCC 19606 type strain; test: CO-ADD antibacterial MIC assay; assay type: cell-based; details: initial CO-ADD dose-response screening; ≥80% growth inhibition
Method: as §3

[14] = tested on: methicillin-resistant Staphylococcus aureus ATCC 43300; test: CO-ADD antibacterial MIC assay; assay type: cell-based; details: initial CO-ADD dose-response screening; ≥80% growth inhibition
Method: as §3

[15] = tested on: Cryptococcus deuterogattii CBS7750 VGII; Serotype B; test: Antifungal MIC assay, extended panel; assay type: cell-based; details: extended panel; 50% inhibition, MIC score 2
[16] = tested on: Cryptococcus deuterogattii ATCC 32609 VGII; test: Antifungal MIC assay, extended panel; assay type: cell-based; details: extended panel; 50% inhibition, MIC score 2
[17] = tested on: HEK-293 human embryonic kidney cells ATCC CRL-1573
Method: The cells were incubated together with the compounds for 20 h at 37 °C in 5% CO2. […] Tamoxifen (Sigma T5648) was used as internal control on each plate.

[18] = tested on: Cryptococcus neoformans H99 ATCC 208821 type strain; test: Antifungal MIC assay; assay type: cell-based; details: for MIC50 Cryptococcus neoformans ATCC 208821: 50% inhibition, MIC score 2; for MIC Cn: initial CO-ADD dose-response screening, ≥80% growth inhibition
In short: as §1

[19] = initial CO-ADD screening, 1 h, 10% hemolysis
[20] = ranges obtained upon retesting, new batch

| SMILES | MIC Candida albicans ATCC 90028 [1] [µM] | MIC50 Candida albicans ATCC 90028 [1] [µM] | MIC Ca [1] | MIC Cryptococcus deuterogattii ATCC 32609 [3] [µM] | MIC Candida tropicalis ATCC 750 [4] [µM] | MIC [5] [µM] | MIC50 Candida tropicalis ATCC 750 [6] [µM] | RBC HC10 [7, 19] | RBC HC10 [7, 20] [µM] | MIC50 Candida glabrata ATCC 90030 [8] [µM] | MIC50 Candida auris CBS12373 [9] [µM] | MIC Candida auris CBS10913 [10] [µM] | MIC50 Candida auris CBS10913 [10] [µM] | MIC Pa [11] | MIC Ec [12] | MIC Ab [13] | MIC MRSA (Sa) [14] | MIC50 Cryptococcus deuterogattii CBS7750 [15] [µM] | MIC50 Cryptococcus deuterogattii ATCC 32609 [16] [µM] | MIC50 Cryptococcus neoformans ATCC 208821 ([18]; extended panel) [µM] | further results |
| --- | --- | --- | --- | --- | --- | --- | --- | --- | --- | --- | --- | --- | --- | --- | --- | --- | --- | --- | --- | --- | --- |
| Cc1c(C)c(-c2ccc(-c3ccccc3)cc2)[c-](C)c1C.Cc1ccccc1NC1=[NH+][Ir]([Cl])[NH]C(NS(=O)(=O)c2ccc([N+](=O)[O-])cc2)=N1 [Ir2] | 0.049 to 0.098 | 0.049 to 0.098 | 2 µg/mL | 0.098 to 0.195 | 0.098 to 0.195 | 0.024 | 0.098 to 0.195 | >32 µg/mL | 2 to 76 | 0.098 to 0.195 | 0.024 | 0.049 to 0.098 | 0.049 to 0.098 | >32 µg/mL | >32 µg/mL | >32 µg/mL | 1 µg/mL | 0.012 to 0.024 | 0.098 to 0.195 | 0.024 to 0.098 | MIC [2]: 0.098 µM; MIC ([9]; second batch, ≥80 or ≥50% inhibition, read-out: MIC* Candida auris CBS12373): 0.024 µM; HEK CC50 ([17]; initial CO-ADD screening, 20 h): >32 µg/mL; MIC Cryptococcus neoformans ATCC 208821 ([18]; extended panel, second batch, ≥80 or ≥50% inhibition): 0.024 to 0.049 µM; MIC Cn [18]: 2 µg/mL |
| CS(=O)(=O)[O][Pd][c]1ccccc1-c1ccccc1N.CS(=O)(=O)[O][Pd][c]1ccccc1-c1ccccc1N [Pd2] | 0.05 to 0.2 | 0.049 to 0.195 | 1.25 µM | 0.024 to 0.049 | 0.195 to 0.391 | 0.098 | 0.195 to 0.391 | >20 µM | 0.2 to 3 | 0.012 to 0.195 | 0.024 to 0.049 | 0.024 to 0.098 | 0.024 to 0.098 | >20 µM | >20 µM | >20 µM | >20 µM | ≤ 0.006 | 0.024 to 0.098 | ≤0.006 to 0.024 | MIC Candida glabrata ATCC 90030 [2]: 0.049 to 0.195 µM; MIC Candida auris CBS12373 ([9]; second batch, ≥80 or ≥50% inhibition): 0.024 to 0.049 µM; CC50 ([17]; read-out: HEK293 CC50, ranges obtained upon retesting, new batch): 38 to 53 µM; CC50 ([17]; read-out: HEK CC50, initial CO-ADD screening, 20 h): > 20 µM; MIC ([18]; extended panel, second batch, ≥80 or ≥50% inhibition, read-out: MIC* Cryptococcus neoformans ATCC 208821): 0.024 µM; MIC Cn [18]: 0.31 µM |
